{"source": "patent US10660335B2", "about": "“Plant disease control agent” (SDS BIOTECH K.K., priority 2011, dated 2020)", "format_in_all_cases": "cell-based", "key": {"Pyricularia oryzae": {"test_system": "Pyricularia oryzae", "settings": "Concentration 10 ppm; colony diameter vs control, 25° C., second day to seventh day"}, "Botrytis cinerea": {"test_system": "Botrytis cinerea", "test": "In vitro antimicrobial activity, mycelial growth on potato dextrose agar medium", "settings": "Concentration 10 ppm"}, "Rhizoctonia solani": {"test_system": "Rhizoctonia solani", "test": "In vitro antimicrobial activity, mycelial growth on potato dextrose agar medium", "settings": "Concentration 10 ppm"}}}
{"substance": "iso-C16 bacillomycin D [Comparative compound]", "values": [{"measurement": "Growth inhibition ratio (%) Pyricularia oryzae", "setting": "Pyricularia oryzae", "value": 35, "unit": "%"}, {"measurement": "Growth inhibition ratio (%) Botrytis cinerea", "setting": "Botrytis cinerea", "value": 39, "unit": "%"}, {"measurement": "Growth inhibition ratio (%) Rhizoctonia solani", "setting": "Rhizoctonia solani", "value": 9, "unit": "%"}]}
